# Columns and labels:
# rat Octn2 = target: T1, rat Octn2 (Rattus norvegicus, UniProt O70594); experiment: Cellular transport assay, HEK-293 cells expressing rat Octn2; settings: positive substrate 20 μM, 10 min; rat Octn2
# T1 sequence (O70594 1-557): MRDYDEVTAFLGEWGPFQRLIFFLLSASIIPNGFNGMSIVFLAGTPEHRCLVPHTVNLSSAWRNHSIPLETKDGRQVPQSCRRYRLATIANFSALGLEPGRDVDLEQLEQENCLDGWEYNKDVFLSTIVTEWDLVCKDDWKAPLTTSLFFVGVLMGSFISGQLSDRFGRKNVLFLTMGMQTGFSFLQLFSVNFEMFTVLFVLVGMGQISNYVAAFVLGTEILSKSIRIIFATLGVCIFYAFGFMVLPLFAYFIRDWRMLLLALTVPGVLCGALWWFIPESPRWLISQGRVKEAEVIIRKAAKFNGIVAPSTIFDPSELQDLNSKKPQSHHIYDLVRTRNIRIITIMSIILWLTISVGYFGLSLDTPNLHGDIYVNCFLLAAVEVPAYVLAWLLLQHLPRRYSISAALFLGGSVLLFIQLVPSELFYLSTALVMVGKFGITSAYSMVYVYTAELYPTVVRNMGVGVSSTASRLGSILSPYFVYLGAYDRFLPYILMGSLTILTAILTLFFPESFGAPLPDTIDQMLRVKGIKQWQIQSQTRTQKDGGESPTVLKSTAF
# human OCT3 = target: T2, human OCT3 (Homo sapiens, UniProt O75751); experiment: Cellular transport assay, HEK-293 cells expressing human OCT3; settings: positive substrate 20 μM, 10 min; human OCT3
# T2 sequence (O75751 1-556): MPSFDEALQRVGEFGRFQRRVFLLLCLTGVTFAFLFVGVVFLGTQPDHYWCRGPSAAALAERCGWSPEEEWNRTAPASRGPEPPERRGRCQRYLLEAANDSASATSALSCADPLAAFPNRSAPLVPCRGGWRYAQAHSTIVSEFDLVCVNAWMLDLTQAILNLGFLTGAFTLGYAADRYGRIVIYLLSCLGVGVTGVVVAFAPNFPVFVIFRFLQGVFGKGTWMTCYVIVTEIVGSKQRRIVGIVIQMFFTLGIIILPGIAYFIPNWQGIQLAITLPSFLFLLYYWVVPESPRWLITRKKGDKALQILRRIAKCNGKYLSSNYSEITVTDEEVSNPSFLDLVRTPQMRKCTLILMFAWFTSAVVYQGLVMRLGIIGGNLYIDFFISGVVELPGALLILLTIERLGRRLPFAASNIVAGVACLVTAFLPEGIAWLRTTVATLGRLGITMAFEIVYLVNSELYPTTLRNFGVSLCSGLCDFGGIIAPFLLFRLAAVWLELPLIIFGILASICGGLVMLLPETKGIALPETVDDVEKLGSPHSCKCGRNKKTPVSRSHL
# rat Oct3 = target: T3, rat Oct3 (Rattus norvegicus, UniProt O88446); experiment: Cellular transport assay, HEK-293 cells expressing rat Oct3; settings: positive substrate 20 μM, 10 min; rat Oct3
# T3 sequence (O88446 1-551): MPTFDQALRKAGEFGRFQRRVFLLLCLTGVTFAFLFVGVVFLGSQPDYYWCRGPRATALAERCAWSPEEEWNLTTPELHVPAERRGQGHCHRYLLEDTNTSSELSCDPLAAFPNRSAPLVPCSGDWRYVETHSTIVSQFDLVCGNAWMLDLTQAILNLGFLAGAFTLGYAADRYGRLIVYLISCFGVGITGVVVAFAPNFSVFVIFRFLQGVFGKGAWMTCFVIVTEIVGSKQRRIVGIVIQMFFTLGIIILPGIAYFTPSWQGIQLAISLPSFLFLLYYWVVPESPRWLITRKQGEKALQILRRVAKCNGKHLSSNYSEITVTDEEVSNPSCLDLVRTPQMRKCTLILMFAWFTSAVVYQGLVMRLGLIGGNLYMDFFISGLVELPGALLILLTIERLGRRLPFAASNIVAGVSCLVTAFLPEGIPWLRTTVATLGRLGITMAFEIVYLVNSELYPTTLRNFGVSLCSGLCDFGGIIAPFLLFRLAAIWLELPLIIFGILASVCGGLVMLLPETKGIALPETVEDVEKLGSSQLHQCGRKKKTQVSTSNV
# rat Ntcp = target: T4, rat Ntcp (Rattus norvegicus, UniProt P26435); experiment: Cellular transport assay, HEK-293 cells expressing rat Ntcp; settings: positive substrate 20 μM, 10 min; rat Ntcp
# T4 sequence (P26435 1-362): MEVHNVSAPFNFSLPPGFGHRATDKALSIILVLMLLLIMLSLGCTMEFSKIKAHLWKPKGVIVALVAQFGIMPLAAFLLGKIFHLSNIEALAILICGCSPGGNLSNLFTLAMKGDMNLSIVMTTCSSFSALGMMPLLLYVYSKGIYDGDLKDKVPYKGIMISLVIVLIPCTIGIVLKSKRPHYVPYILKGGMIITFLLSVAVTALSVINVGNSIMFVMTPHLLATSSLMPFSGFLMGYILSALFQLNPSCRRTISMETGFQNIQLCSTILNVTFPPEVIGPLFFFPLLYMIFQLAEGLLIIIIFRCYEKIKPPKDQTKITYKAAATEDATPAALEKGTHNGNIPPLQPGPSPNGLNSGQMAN
# human NTCP = target: T5, human NTCP (Homo sapiens, UniProt Q14973); experiment: Cellular transport assay, HEK-293 cells expressing human NTCP; settings: positive substrate 20 μM, 10 min; human NTCP
# T5 sequence (Q14973 1-349): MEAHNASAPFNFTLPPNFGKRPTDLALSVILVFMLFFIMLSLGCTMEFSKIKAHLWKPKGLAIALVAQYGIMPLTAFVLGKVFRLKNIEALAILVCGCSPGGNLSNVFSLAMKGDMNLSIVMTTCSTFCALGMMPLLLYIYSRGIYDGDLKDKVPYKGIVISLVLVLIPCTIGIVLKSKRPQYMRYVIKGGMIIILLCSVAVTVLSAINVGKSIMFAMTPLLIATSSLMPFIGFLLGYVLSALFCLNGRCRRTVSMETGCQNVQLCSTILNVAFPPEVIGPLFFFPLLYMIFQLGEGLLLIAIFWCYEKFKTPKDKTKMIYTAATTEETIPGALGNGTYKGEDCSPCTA
# rat Bsep = target: T6, rat Bsep (Rattus norvegicus, UniProt O70127); experiment: Vesicular transport assay, inside-out membrane vesicles expressing rat Bsep; settings: positive substrate 20 μM, 10 min; rat Bsep
# T6 sequence (O70127 1-1321): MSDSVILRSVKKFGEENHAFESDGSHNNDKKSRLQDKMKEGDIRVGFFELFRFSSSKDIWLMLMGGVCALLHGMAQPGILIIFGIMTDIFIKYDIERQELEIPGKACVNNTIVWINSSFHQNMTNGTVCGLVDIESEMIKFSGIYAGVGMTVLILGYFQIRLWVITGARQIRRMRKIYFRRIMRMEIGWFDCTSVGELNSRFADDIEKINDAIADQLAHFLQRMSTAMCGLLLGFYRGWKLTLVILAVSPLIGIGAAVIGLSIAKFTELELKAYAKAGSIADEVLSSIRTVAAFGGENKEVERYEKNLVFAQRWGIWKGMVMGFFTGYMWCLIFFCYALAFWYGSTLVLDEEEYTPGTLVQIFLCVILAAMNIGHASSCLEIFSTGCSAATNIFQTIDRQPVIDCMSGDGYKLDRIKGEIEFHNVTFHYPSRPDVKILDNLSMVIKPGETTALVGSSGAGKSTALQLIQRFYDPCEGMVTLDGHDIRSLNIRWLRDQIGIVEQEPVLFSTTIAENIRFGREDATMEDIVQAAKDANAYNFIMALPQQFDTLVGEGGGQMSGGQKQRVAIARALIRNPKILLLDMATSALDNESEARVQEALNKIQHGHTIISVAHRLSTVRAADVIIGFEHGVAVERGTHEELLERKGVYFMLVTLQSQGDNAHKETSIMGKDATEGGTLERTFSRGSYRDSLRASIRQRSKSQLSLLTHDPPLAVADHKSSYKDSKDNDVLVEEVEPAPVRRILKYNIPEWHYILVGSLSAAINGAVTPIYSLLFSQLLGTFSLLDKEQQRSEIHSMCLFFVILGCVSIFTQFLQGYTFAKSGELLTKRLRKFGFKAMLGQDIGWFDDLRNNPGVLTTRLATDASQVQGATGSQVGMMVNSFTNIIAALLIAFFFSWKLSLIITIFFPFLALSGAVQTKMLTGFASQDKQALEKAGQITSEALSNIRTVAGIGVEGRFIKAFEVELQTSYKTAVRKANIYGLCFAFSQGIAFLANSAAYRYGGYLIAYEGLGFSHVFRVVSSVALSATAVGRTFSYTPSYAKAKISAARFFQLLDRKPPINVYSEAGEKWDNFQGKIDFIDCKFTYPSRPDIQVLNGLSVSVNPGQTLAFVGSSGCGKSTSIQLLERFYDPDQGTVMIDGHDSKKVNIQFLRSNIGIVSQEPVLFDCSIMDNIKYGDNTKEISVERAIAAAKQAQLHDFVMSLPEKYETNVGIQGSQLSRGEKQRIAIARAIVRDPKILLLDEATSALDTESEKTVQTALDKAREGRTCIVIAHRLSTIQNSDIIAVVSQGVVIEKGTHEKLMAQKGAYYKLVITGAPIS
# Description: (§1) Inside-out membrane vesicles (5 mg protein/mL), prepared from insect cells expressing human multidrug resistance-associated protein (MRP) 2, MRP3, MRP4, breast cancer resistance protein (BCRP), bile salt export pump (BSEP), and multidrug resistance protein (MDR) one and rat Mrp2, Mrp4, Bcrp, and Bsep, and vesicles (5 mg protein/mL; prepared from the insect cells expressing no ABC transporter; serving as negative control) were obtained from Genomembrane (Kanazawa, Japan).
# (§2) The test Danshen compounds at 100 µM final concentration were separately incubated with the membrane vesicles for 10 min. Buffer C (50 mM MOPS-tris, 70 mM KCl, 7.5 mM MgCl2, pH 7.0) was used for preincubation and incubation, while buffer D (40 mM MOPS-tris, 70 mM KCl, pH 7.0) was used for vesicle washing. The transport rate (pmol/mg protein/min) of the test Danshen compound was calculated using Equation (2): Transport=(CV×VV)/T/WV (2) where C V, V V, T, and W V represent concentration of the compound in vesicular lysates supernatant (μM), volume of the lysates (μL), incubation time (10 min), and amount of vesicle protein amount per well (0.05 mg), respectively. Differential transport of the test Danshen compound between ATP-containing vesicles and AMP-containing vesicles was defined as net transport ratio (TransportATP/TransportAMP ratio). […] All the incubation samples were analyzed by liquid chromatography/mass spectrometry.
# human BSEP = human BSEP (Homo sapiens, UniProt O95342); experiment: Vesicular transport assay, inside-out membrane vesicles expressing human BSEP; settings: positive substrate 20 μM, 10 min; human BSEP
# Description: as §1, §2
# Chain of human BSEP (O95342 whole entry): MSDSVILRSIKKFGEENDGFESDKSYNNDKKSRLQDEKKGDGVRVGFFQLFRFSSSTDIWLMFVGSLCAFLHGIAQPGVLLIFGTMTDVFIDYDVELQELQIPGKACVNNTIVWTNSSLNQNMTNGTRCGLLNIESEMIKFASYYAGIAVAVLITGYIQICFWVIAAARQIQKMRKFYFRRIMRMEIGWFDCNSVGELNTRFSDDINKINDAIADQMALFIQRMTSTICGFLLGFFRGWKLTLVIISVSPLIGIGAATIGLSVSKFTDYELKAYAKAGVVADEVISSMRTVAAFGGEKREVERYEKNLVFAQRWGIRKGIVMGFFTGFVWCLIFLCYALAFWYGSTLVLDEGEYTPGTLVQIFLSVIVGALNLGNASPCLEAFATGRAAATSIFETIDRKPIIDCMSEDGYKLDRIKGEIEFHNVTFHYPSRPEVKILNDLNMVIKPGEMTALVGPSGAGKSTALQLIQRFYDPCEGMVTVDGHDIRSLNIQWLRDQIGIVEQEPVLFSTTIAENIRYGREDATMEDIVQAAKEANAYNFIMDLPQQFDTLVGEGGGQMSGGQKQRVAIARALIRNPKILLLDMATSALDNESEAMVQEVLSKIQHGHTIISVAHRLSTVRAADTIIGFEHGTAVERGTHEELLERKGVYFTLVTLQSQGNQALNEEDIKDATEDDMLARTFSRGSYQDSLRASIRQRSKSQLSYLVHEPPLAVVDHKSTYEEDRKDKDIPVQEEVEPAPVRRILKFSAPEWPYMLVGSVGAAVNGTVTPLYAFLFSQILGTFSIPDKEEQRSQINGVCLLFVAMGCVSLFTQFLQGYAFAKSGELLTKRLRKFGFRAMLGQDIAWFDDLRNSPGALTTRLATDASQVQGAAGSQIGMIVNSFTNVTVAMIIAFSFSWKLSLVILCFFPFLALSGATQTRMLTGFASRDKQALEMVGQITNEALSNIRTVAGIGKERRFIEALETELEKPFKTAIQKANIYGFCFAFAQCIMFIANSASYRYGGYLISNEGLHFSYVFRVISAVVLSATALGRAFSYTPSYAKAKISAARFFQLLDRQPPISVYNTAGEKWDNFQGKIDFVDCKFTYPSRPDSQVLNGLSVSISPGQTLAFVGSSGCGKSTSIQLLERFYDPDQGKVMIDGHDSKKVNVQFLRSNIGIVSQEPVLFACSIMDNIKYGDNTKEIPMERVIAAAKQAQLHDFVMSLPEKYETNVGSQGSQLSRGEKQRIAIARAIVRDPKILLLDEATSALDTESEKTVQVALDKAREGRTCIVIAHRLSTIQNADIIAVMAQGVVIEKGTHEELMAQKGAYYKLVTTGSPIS
SMILES,"TransportTC/TransportMC ratio, positive substrate (rat Octn2)","TransportTC/TransportMC ratio, positive substrate (human OCT3)","TransportTC/TransportMC ratio, positive substrate (rat Oct3)","TransportTC/TransportMC ratio, positive substrate (rat Ntcp)","TransportTC/TransportMC ratio, positive substrate (human NTCP)","TransportATP/TransportAMP ratio, positive substrate (rat Bsep)","TransportATP/TransportAMP ratio, positive substrate (human BSEP)"
"CC[N+](CC)(CC)CC [TEA, tetraethylammonium, reference compound]",9.85 ± 0.74 (TEA),4.45 ± 0.27 (TEA),3.90 ± 0.88 (TEA),–,–,–,–
"C[C@H](CCC(=O)NCCS(=O)(=O)O)[C@H]1CC[C@H]2[C@@H]3[C@H](O)C[C@@H]4C[C@H](O)CC[C@]4(C)[C@H]3C[C@H](O)[C@]12C [TCA, taurocholic acid, reference compound]",–,–,–,134 ± 15 (TCA),144 ± 30 (TCA),5.14 ± 0.88 (TCA),4.03 ± 0.89 (TCA)

# Source: publication PMC9127186, “Molecular Basis Underlying Hepatobiliary and Renal Excretion of Phenolic Acids of Salvia miltiorrhiza Roots (Danshen)” (Frontiers in Pharmacology, 2022)
